Results from patent US6596764B1, “Method of preparing diacetyl rhein” (Laboratoire Medidom S.A., priority 1991, dated 2003).

Legend:
[1] = test system: coxarthrosis and gonarthrosis; assay: Clinical double-blind study against naproxen with subsequent placebo after-treatment; assay type: in vivo, human; conditions: for improvement of all test parameters (pain and movement symptoms score, function limitation, compatibility) vs initial values: patients, 60 days
Description: 1. The action of diacetylrhein was investigated in coxarthrosis and gonarthrosis in 95 (49/46) patients in a double-blind study against naproxen and subsequent placebo after-treatment. The dosage administered was 50 mg of diacetylrhein twice daily or 750 mg of naproxen daily. The period of treatment was 60 days after a 7 day wash-out phase. The subsequent placebo treatment extended over 60 days. Test parameters were the pain and movement symptoms according to a score scale, function limitation and compatibility.

[2] = test system: mucosal lesions in patients with osteoarthrosis; assay: Clinical randomised double blind double dummy compatibility study (oesophagogastroduodenoscopic findings); assay type: in vivo, human; conditions: after 4 weeks
Description: 4. The action of diacetylrhein was investigated in 23 patients (12/11) with osteoarthrosis in a randomised double blind study using the “double dummy technique” (compatibility study). The dosage administered was 50 mg of diacetylrhein twice daily and 250 mg of naproxen three times daily. The period of treatment was 4 weeks. The test parameters were then oesophagogastroduodenoscopic findings before and after the therapy. Only patients with normal mucosal findings or with slight mucosal lesions (grade 1) were used in the study.

[3] = in vivo; conditions: rat, mouse, cat
[4] = test system: localised arthrosis; assay: Clinical single blind crossover study against naproxen; assay type: in vivo, human; conditions: 20 patients
Description: 3. The action of diacetylrhein in the case of localised arthrosis in 20 patients was investigated in a single blind crossover study against naproxen. The patients were divided up into two groups: in the first group, initially 50 mg of diacetylrhein was administered twice daily for 20 days. Subsequently, there followed a three day wash-out phase and a further treatment with 250 mg of naproxen twice daily for a further 20 days. In the second group, the reverse sequence was used. The period of treatment was, in all, 43 days. The test parameters of pain, compression pain, passive movement pain, function limitation and swelling were determined according to a score system.

[5] = test system: cotton pellet granuloma; assay: Cotton pellet granuloma in rats (chronic inflammation model, oral administration); assay type: in vivo, rat
Description: The effectiveness of diacetylrhein was determined in chronic inflammation models after oral administration. The following experimental models were used: cotton pellet granuloma in rats and arthrosis in rabbits induced by the intraarticular administration of vitamin A. a) Cotton pellet granuloma in rats. Young sexually mature rats (n=10) were given 25, 50 or 100 mg diacetylrhein/kg or 5 mg indomethacin/kg or 100 mg acetylsalicylic acid/kg daily for 5 days. A control group only treated with water was also used. Implantation of the pellets took place on the first day of treatment.

[6] = test system: osteoarthrosis of the spine and of the knee; assay: Clinical open running study with control (physiotherapy); assay type: in vivo, human
Description: 2. In an open running study with control, there was investigated the action of diacetylrhein against osteoarthrosis of the spine and of the knee in 70 patients (35/35). The dosage administered was 100 mg of diacetylrhein per day. The period of treatment was 60 days and the period of observation was 75 days. The test parameters were pain and movement limitation. The parameters were evaluated according to a score system. The control group comprised 35 patients in the case of which exclusively physiotherapeutic measures were carried out. Physiotherapy was also carried out in the diacetylrhein treatment group.

[7] = test system: arthrosis in rabbits induced by the intraarticular administration of vitamin A; assay: Vitamin A arthrosis in rabbits (chronic inflammation model, oral administration); assay type: in vivo, rabbit (white New Zealanders); conditions: for clinical signs of arthrosis (disturbances of movement, dragging of the rear legs): 7 rabbits
Description: The effectiveness of diacetylrhein was determined in chronic inflammation models after oral administration.
The following experimental models were used: cotton pellet granuloma in rats and arthrosis in rabbits induced by the intraarticular administration of vitamin A.
An arthrosis-like joint change was initiated in two groups each of 10 rabbits (white New Zealanders) by means of three intraarticular injections of 30,000 IU of vitamin A over the course of 9 days. 56 days later, 10 animals were treated with 3 mg of diacetylrhein/kg/day for 8 weeks.
Furthermore, the curative action of diacetylrhein was compared with that of acetylsalicylic acid on each of 7 rabbits which, after 6 days pre-treatment with three times 10,000 IU vitamin A and a 26 day treatment-free interval for 8 weeks, received either 5 mg of diacetylrhein/kg/day (experimental group), 15 mg of acetylsalicylic acid/kg/day (positive control group) or remained untreated (negative control group). […] In the negative control group, during the following 8 weeks, the clinical signs of a manifest arthrosis increased.

[8] = test system: gastric mucosa; assay: Gastric mucosa changes in the rat; assay type: in vivo
[9] = 250 mg of naproxen three times daily
[10] = crossover study, 43 days in all
[11] = 50 mg of diacetylrhein twice daily

Q: For COc1ccc2cc([C@H](C)C(=O)O)ccc2c1 [naproxen, reference compound], which “improvement of all test parameters (pain and movement symptoms score, function limitation, compatibility) vs initial values” ([1]; 750 mg of naproxen daily, P<0.05) is on record?
A: statistically significant rate of improvement

Q: What about the “number of patients with mucosal lesions of grade 2, 3 and 4 (endoscopic findings)” value [2, 9] of the same compound?
A: 5 patients

Q: And the “share of patients with mucosal lesions of grade 2, 3 and 4 (endoscopic findings)” value [2, 9]?
A: 50%

Q: What does the source list for CC(=O)Oc1cccc2c1C(=O)c1c(OC(C)=O)cc(C(=O)O)cc1C2=O [diacetylrhein]?
A: LD50 [3]: 119 to 339 mg/kg; LD50 ([3]; po): 1900 to 7900 mg/kg; clinical laboratory parameters [4, 10]: no changes; side effects [4, 10]: No noteworthy side effects; pain, compression pain, passive movement pain, function limitation and swelling (score system), vs naproxen ([4]; crossover, 50 mg diacetylrhein twice daily 20 days vs 250 mg naproxen twice daily 20 days): superiority; Fresh and dry weights of the granuloma ([5]; rats (n=10), oral, 25, 50 or 100 mg diacetylrhein/kg daily for 5 days, in comparison with water-treated control group): significant and clearly dosage-dependent reduction; action on granuloma weights compared with reference drugs ([5]; rats, oral, 100 mg diacetylrhein/kg daily for 5 days vs 5 mg indomethacin/kg or 100 mg acetylsalicylic acid/kg): corresponded to about the action of 5 mg indomethacin or of 100 mg acetylsalicylic acid; weights of the thymus and adrenals ([5]; rats, oral, daily treatment for 5 days): did not change; pain and movement limitation (score system), treatment group vs control group ([6]; 35/35 patients, 100 mg per day plus physiotherapy for 60 days vs physiotherapy only): statistically significant superiority; effect after discontinuation of the treatment ([6]; period of observation 75 days, treatment 60 days, 100 mg per day): continuing therapeutic effect (hang-over effect); clinical signs of arthrosis (disturbances of movement, dragging of the rear legs) ([7]; 5 mg of diacetylrhein/kg/day for 8 weeks after 3 x 10,000 IU vitamin A and 26 day treatment-free interval): improved significantly; macroscopically and microscopically recognisable joint changes ([7]; rabbits, 3 mg/kg/day for 8 weeks starting 56 days after 3 x 30,000 IU vitamin A, in comparison with control group): significantly reduced; night pain and pressure pain after discontinuation, vs naproxen/placebo collective ([1]; 30 days after discontinuation of diacetylrhein, 5% level): difference was also verified; spontaneous pain and active and passive movement pain after discontinuation, vs naproxen/placebo collective ([1]; days 90 and 120, under subsequent placebo, P<0.01): statistically significant superiority; improvement of all test parameters (pain and movement symptoms score, function limitation, compatibility) vs initial values ([1]; 50 mg of diacetylrhein twice daily, P<0.01): statistically significant rate of improvement; number of cases with mucosal lesions of grade 2 (endoscopic findings) [2, 11]: one; share of patients with mucosal lesions of grade 2 (endoscopic findings) [2, 11]: 10%; erosions of the gastric mucosa ([8]; single administration of 400 mg/kg): did not give rise to any erosions; gastric mucosal damage ([8]; twice daily 100 mg/kg over the course of 3 days): did not initiate any mucosal damage

Q: Which “clinical signs of arthrosis (disturbances of movement, dragging of the rear legs)” value ([7]; 15 mg of acetylsalicylic acid/kg/day for 8 weeks (positive control group)) does the source give for CC(=O)Oc1ccccc1C(=O)O [acetylsalicylic acid, reference compound] here?
A: improved significantly
